pIC50: −log10 of the molar value.
System: DU-145 multicell spheroids with HUVEC/MSC, viability
Assay: Anticancer human tumor DU-145 cell line growth inhibition [IpAb];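 also: spheroids exposed to agents for seven days before measurement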;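 as to viability, T/C: percent of DMSO vehicle control viability so 100% = untreated level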
Conditions: for pIC50: curve of first compound; for viability, T/C: stronger effect = lower value
Method in brief: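 Spheroids of 60% malignant cells, 25% HUVEC and 15% MSC were exposed to targeted agents combined with ipatasertib or abemaciclib. Doses started at or near clinical Cmax (10 microM when unknown) and fell in half-log steps.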

[1] = second compound 0.1 µM, first compound 0.00316 µM
[2] = second compound 0.1 µM, first compound 0.01 µM
[3] = second compound 0.1 µM, first compound 0.0316 µM
[4] = second compound 0.1 µM, first compound 0.1 µM
[5] = second compound 0.1 µM, first compound 0.316 µM
[6] = second compound 0.1 µM, first compound 1 µM
[7] = second compound 0.316 µM, first compound 0.00316 µM
[8] = second compound 0.316 µM, first compound 0.01 µM
[9] = second compound 0.316 µM, first compound 0.0316 µM
[10] = second compound 0.316 µM, first compound 0.1 µM
[11] = second compound 0.316 µM, first compound 0.316 µM
[12] = second compound 0.316 µM, first compound 1 µM
[13] = second compound 1 µM, first compound 0.00316 µM
[14] = second compound 1 µM, first compound 0.01 µM
[15] = second compound 1 µM, first compound 0.0316 µM
[16] = second compound 1 µM, first compound 0.1 µM
[17] = second compound 1 µM, first compound 0.316 µM
[18] = second compound 1 µM, first compound 1 µM
[19] = second compound 3.16 µM, first compound 0.00316 µM
[20] = second compound 3.16 µM, first compound 0.01 µM
[21] = second compound 3.16 µM, first compound 0.0316 µM
[22] = second compound 3.16 µM, first compound 0.1 µM
[23] = second compound 3.16 µM, first compound 0.316 µM
[24] = second compound 3.16 µM, first compound 1 µM
[25] = second compound 10 µM, first compound 0.00316 µM
[26] = second compound 10 µM, first compound 0.01 µM
[27] = second compound 10 µM, first compound 0.0316 µM
[28] = second compound 10 µM, first compound 0.1 µM
[29] = second compound 10 µM, first compound 0.316 µM
[30] = second compound 10 µM, first compound 1 µM
[31] = second compound 0.1 µM, first compound 3.16 µM
[32] = second compound 0.1 µM, first compound 10 µM
[33] = second compound 0.316 µM, first compound 3.16 µM
[34] = second compound 0.316 µM, first compound 10 µM
[35] = second compound 1 µM, first compound 3.16 µM
[36] = second compound 1 µM, first compound 10 µM

`COc1c(OCCCN2CCOCC2)ccc2c3n(c(=NC(=O)c4cnc(N)nc4)nc12)CCN3` + CC(C)NCC(C(=O)N1CCN(c2ncnc3c2C(C)CC3O)CC1)c1ccc(Cl)cc1 was tested, and the pIC50 (second compound 0.1 µM) was 8.17, the pIC50 (second compound 0.316 µM) was over 8.50 and the pIC50 (second compound 1 µM) was over 8.50. The pIC50 (second compound 3.16 µM) was over 8.50, the pIC50 (second compound 10 µM) was over 8.50 and the viability, T/C [1] was 65.3%. For the same compound, the viability, T/C [2] was 41.2%, the viability, T/C [3] was 27.6% and the viability, T/C [4] was 12.7%. The viability, T/C [5] was 9.75%, the viability, T/C [6] was 10.5% and the viability, T/C [7] was 41.5%. The viability, T/C [8] was 28.2%, the viability, T/C [9] was 18.8% and the viability, T/C [10] was 11.6%. It also gave a viability, T/C [11] of 9.1%, a viability, T/C [12] of 11.2% and a viability, T/C [13] of 25.4%. It also gave a viability, T/C [14] of 22%, a viability, T/C [15] of 14.8% and a viability, T/C [16] of 10%. For the same compound, the viability, T/C [17] was 8.83%, the viability, T/C [18] was 10.2% and the viability, T/C [19] was 18.7%. The viability, T/C [20] was 14.6%, the viability, T/C [21] was 12.1% and the viability, T/C [22] was 9.46%. For the same compound, the viability, T/C [23] was 8.26%, the viability, T/C [24] was 9.07% and the viability, T/C [25] was 14.6%. It also gave a viability, T/C [26] of 12.5%, a viability, T/C [27] of 10.5% and a viability, T/C [28] of 8.52%. For the same compound, the viability, T/C [29] was 7.9% and the viability, T/C [30] was 9.09%.

Compound `CC1(C)CCC(CN2CCN(c3ccc(C(=O)NS(=O)(=O)c4ccc(NCC5CCOCC5)c([N+](=O)[O-])c4)c(Oc4cnc5[nH]ccc5c4)c3)CC2)=C(c2ccc(Cl)cc2)C1` + CCN1CCN(Cc2ccc(Nc3ncc(F)c(-c4cc(F)c5nc(C)n(C(C)C)c5c4)n3)nc2)CC1 has a pIC50 (second compound 0.01 µM) of 5.31, a pIC50 (second compound 0.0316 µM) of 5.39 and a pIC50 (second compound 0.1 µM) of 5.38. The pIC50 (second compound 0.316 µM) was 5.44, the pIC50 (second compound 1 µM) was 5.46 and the viability, T/C (second compound 0.01 µM, first compound 0.0316 µM) was 108%. The viability, T/C (second compound 0.01 µM, first compound 0.1 µM) was 104%, the viability, T/C (second compound 0.01 µM, first compound 0.316 µM) was 103% and the viability, T/C (second compound 0.01 µM, first compound 1 µM) was 99.8%. For the same compound, the viability, T/C (second compound 0.01 µM, first compound 3.16 µM) was 70.2%, the viability, T/C (second compound 0.01 µM, first compound 10 µM) was 16.7% and the viability, T/C (second compound 0.0316 µM, first compound 0.0316 µM) was 95.8%. For the same compound, the viability, T/C (second compound 0.0316 µM, first compound 0.1 µM) was 101%, the viability, T/C (second compound 0.0316 µM, first compound 0.316 µM) was 97% and the viability, T/C (second compound 0.0316 µM, first compound 1 µM) was 90.4%. It also gave a viability, T/C (second compound 0.0316 µM, first compound 3.16 µM) of 61.5%, a viability, T/C (second compound 0.0316 µM, first compound 10 µM) of 11.1% and a viability, T/C [3] of 94.8%. It also gave a viability, T/C [4] of 102%, a viability, T/C [5] of 92% and a viability, T/C [6] of 78.9%. It also gave a viability, T/C [31] of 64.3%, a viability, T/C [32] of 13.5% and a viability, T/C [9] of 84%. It also gave a viability, T/C [10] of 88.2%, a viability, T/C [11] of 80.3% and a viability, T/C [12] of 72.5%. The viability, T/C [33] was 56.7%, the viability, T/C [34] was 10.8% and the viability, T/C [15] was 71.3%. For the same compound, the viability, T/C [16] was 72.8%, the viability, T/C [17] was 68.3% and the viability, T/C [18] was 69.5%. The viability, T/C [35] was 52.2% and the viability, T/C [36] was 12.3%.

`Cn1ncnc1[C@H]1c2n[nH]c(=O)c3cc(F)cc(c23)N[C@@H]1c1ccc(F)cc1` + CC(C)NCC(C(=O)N1CCN(c2ncnc3c2C(C)CC3O)CC1)c1ccc(Cl)cc1 gave a pIC50 (second compound 0.1 µM) of under 7.00, a pIC50 (second compound 0.316 µM) of 7.34 and a pIC50 (second compound 1 µM) of over 9.50. For the same compound, the pIC50 (second compound 3.16 µM) was over 9.50, the pIC50 (second compound 10 µM) was over 9.50 and the viability, T/C (second compound 0.1 µM, first compound 0.000316 µM) was 85.8%. The viability, T/C (second compound 0.1 µM, first compound 0.001 µM) was 81.1%, the viability, T/C [1] was 83.2% and the viability, T/C [2] was 82.1%. For the same compound, the viability, T/C [3] was 77.9%, the viability, T/C [4] was 73.4% and the viability, T/C (second compound 0.316 µM, first compound 0.000316 µM) was 56%. It also gave a viability, T/C (second compound 0.316 µM, first compound 0.001 µM) of 57.8%, a viability, T/C [7] of 51.9% and a viability, T/C [8] of 53.8%. For the same compound, the viability, T/C [9] was 51.8%, the viability, T/C [10] was 47.1% and the viability, T/C (second compound 1 µM, first compound 0.000316 µM) was 34.4%. For the same compound, the viability, T/C (second compound 1 µM, first compound 0.001 µM) was 36.3%, the viability, T/C [13] was 33.5% and the viability, T/C [14] was 33%. The viability, T/C [15] was 34.3%, the viability, T/C [16] was 33.6% and the viability, T/C (second compound 3.16 µM, first compound 0.000316 µM) was 24%. For the same compound, the viability, T/C (second compound 3.16 µM, first compound 0.001 µM) was 24.8%, the viability, T/C [19] was 23.9% and the viability, T/C [20] was 21.9%. The viability, T/C [21] was 24.5%, the viability, T/C [22] was 23.3% and the viability, T/C (second compound 10 µM, first compound 0.000316 µM) was 17.7%. It also gave a viability, T/C (second compound 10 µM, first compound 0.001 µM) of 20.1%, a viability, T/C [25] of 19.6% and a viability, T/C [26] of 19.1%. For the same compound, the viability, T/C [27] was 18.1% and the viability, T/C [28] was 19.5%.

`Cn1ncc(Cl)c1-c1cc(C(=O)NC(CN)Cc2cccc(F)c2)sc1Cl` (stereo not given) + CC(C)NCC(C(=O)N1CCN(c2ncnc3c2C(C)CC3O)CC1)c1ccc(Cl)cc1 was tested, and the pIC50 (second compound 0.1 µM) was 6.85, the pIC50 (second compound 0.316 µM) was over 7.50 and the pIC50 (second compound 1 µM) was over 7.50. For the same compound, the pIC50 (second compound 3.16 µM) was over 7.50, the pIC50 (second compound 10 µM) was over 7.50 and the viability, T/C [3] was 72.8%. For the same compound, the viability, T/C [4] was 56.3%, the viability, T/C [5] was 35.3% and the viability, T/C [6] was 24.7%. The viability, T/C [31] was 17%, the viability, T/C [32] was 0.42% and the viability, T/C [9] was 46.1%. The viability, T/C [10] was 41.2%, the viability, T/C [11] was 33.6% and the viability, T/C [12] was 24%. The viability, T/C [33] was 16.4%, the viability, T/C [34] was 1.33% and the viability, T/C [15] was 30%. It also gave a viability, T/C [16] of 32.6%, a viability, T/C [17] of 28% and a viability, T/C [18] of 24.2%. The viability, T/C [35] was 15.8%, the viability, T/C [36] was 0.93% and the viability, T/C [21] was 22%. The viability, T/C [22] was 24.4%, the viability, T/C [23] was 21.7% and the viability, T/C [24] was 19.6%. For the same compound, the viability, T/C (second compound 3.16 µM, first compound 3.16 µM) was 18.7%, the viability, T/C (second compound 3.16 µM, first compound 10 µM) was 0.86% and the viability, T/C [27] was 19.4%. For the same compound, the viability, T/C [28] was 19.7%, the viability, T/C [29] was 19.7% and the viability, T/C [30] was 18.5%. For the same compound, the viability, T/C (second compound 10 µM, first compound 3.16 µM) was 15.8% and the viability, T/C (second compound 10 µM, first compound 10 µM) was 0.27%.

— PubChem BioAssay AID2060335 (Molecular Pharmacology Branch, DTP, NCI, 2025)
